Experimental data: US7420083B2, “Substituted aryloximes” (Wyeth, priority 2003, dated 2008)

Columns and labels:
[1] = target: T1, recombinant human plasminogen activator inhibitor-1 (PAI-1) (Homo sapiens, UniProt P05121); test: Screening for PAI-1 inhibition (chromogenic tPA activity assay, Spectrozyme-tPA); assay type: biochemical; details: for IC50: footnote b: IC50 determined by a modification of the Primary Screen for PAI-1 Inhibition
T1 construct: purchased Molecular Innovations, Royal Oak, Mich
Procedure: Screening for PAI-1 inhibition. Test compounds are dissolved in DMSO at a final concentration of 10 mM, then diluted 100×in physiologic buffer. The inhibitory assay is initiated by the addition of the test compound (1-100 μM final concentration, maximum DMSO concentration of 0.2%) in a pH 6.6 buffer containing 140 nM recombinant human plasminogen activator inhibitor-1 (PAI-1; Molecular Innovations, Royal Oak, Mich.). Following a 1 hour incubation at room temperature, 70 nM of recombinant human tissue plasminogen activator (tPA) is added, and the combination of the test compound, PAI-1 and tPA is incubated for an additional 30 minutes. Following the second incubation, Spectrozyme-tPA (American Diagnostica, Greenwich, Conn.), a chromogenic substrate for tPA, is added and absorbance read at 405 nm at 0 and 60 minutes. Relative PAI-1 inhibition is equal to the residual tPA activity in the presence of the test compounds and PAI-1. Control treatments include the complete inhibition of tPA by PAI-1 at the molar ratio employed (2:1), and the absence of any effect of the test compound on tPA alone.

[2] = PAI-1 inhibition at 25 μM test compound, pH 6.6 buffer, 140 nM PAI-1, 70 nM tPA

T1 sequence (P05121 24-402): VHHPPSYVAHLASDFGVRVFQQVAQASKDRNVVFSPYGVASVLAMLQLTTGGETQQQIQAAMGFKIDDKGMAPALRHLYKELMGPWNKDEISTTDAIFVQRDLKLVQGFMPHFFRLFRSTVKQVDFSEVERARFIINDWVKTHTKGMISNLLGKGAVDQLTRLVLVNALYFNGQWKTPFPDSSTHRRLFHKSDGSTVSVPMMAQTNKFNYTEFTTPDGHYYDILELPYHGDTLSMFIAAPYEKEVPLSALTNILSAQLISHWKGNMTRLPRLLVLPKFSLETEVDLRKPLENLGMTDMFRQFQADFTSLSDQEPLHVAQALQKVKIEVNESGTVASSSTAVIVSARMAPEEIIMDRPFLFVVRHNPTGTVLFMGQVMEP

Row | SMILES | inhibition at 25 µM [1, 2] [%] | melting point [°C] | IC50 [1] [µM] | % Inhibition @ 25 μM [1, 2] [%]
1 | CC(=NOCCCOc1ccc(CC(=O)O)cc1)c1ccc(C(C)(C)C)cc1 [Compound 1, (4-{3-[1-(4-tert-Butyl-phenyl)-ethylideneaminooxy]-propoxy}-phenyl)-acetic Acid] | 39 | 98.7 to 99.7 | – | –
2 | C/C(=N\OCCOc1ccc(C(=O)O)c(O)c1)c1ccc(C(C)(C)C)cc1 [Compound 5, 4-{2-[({(E)-1-[4-(tert-Butyl)-phenyl]-ethylidene}amino)oxy]-ethoxy}-2-hydroxy-benzoic Acid] | – | 157.4 to 158.7 | 20.2 | –
3 | CC(C)(C)c1ccc(C=NOCCOc2ccc(C(=O)O)c(O)c2)cc1 [Compound 7, 4-{2-[({[4-(tert-Butyl)phenyl]methylidene}amino)oxy]ethoxy}-2-hydroxybenzoic Acid] | 33 | 161.4 to 162.7 | – | –
4 | COc1ccc(C(=O)Oc2cc(OCCO/N=C/c3ccc(C(C)(C)C)cc3)ccc2C(=O)O)cc1 [Compound 9, 4-{2-[({(E)-[4-(tert-Butyl)phenyl]methylidene}amino)oxy]ethoxy}-2-[(4-methoxybenzoyl)oxy]benzoic Acid] | – | 115.5 to 117.5 | 25.6 | –
5 | CC(C)(C)c1ccc(/C=N/OCCOc2ccc(C(=O)O)c(OC(=O)c3ccccc3)c2)cc1 [Compound 11, 2-(Benzoyloxy)-4-{2-[({(E)-[4-(tert-butyl)phenyl]methylidene}amino)oxy]ethoxy}benzoic Acid] | – | 129.3 to 130.6 | 8.4 | –
6 | CC(C)(C)c1ccc(C=NOCCOc2ccc(C(=O)O)c(OCc3ccc(C(F)(F)F)cc3)c2)cc1 [Compound 14, 4-{2-[({[4-(tert-Butyl)phenyl]methylidene}amino)oxy]ethoxy}-2-{[4-(trifluoromethyl)benzyl]oxy}benzoic acid] | 28 | 164.1 to 164.8 | – | –
7 | CC(C)(C)c1ccc(C=NOCCCOc2ccc(Cc3nnn[nH]3)cc2)cc1 [Compound 17, 4-(tert-Butyl)benzaldehyde 0-{3-[4-(1H-tetraazol-5-ylmethyl)-phenoxy]-propyl}oxime] | – | – | – | 35
8 | CC(C)(C)c1ccc(/C=N/OCCCOc2ccc(C(=O)O)c(NC(=O)c3ccc(C(C)(C)C)cc3)c2)cc1 [Compound 18, 2-{[4-(tert-Butyl)benzoyl]amino}-4-{3-[({(E)-[4-(tert-butyl)phenyl]methylidene}amino)oxy]propoxy}benzoic Acid] | – | 192.3 to 193.8 | 18.5 | –
9 | O=C(Nc1cc(OCCCO/N=C/c2ccc(-c3ccccc3)cc2)ccc1C(=O)O)c1ccc(C(F)(F)F)cc1 [Compound 20, 4-[3-({[(1E)-1,1′-Biphenyl-4-ylmethylidene]amino}oxy)propoxy]-2-{[4-(trifluoromethyl)benzoyl]amino}benzoic Acid] | – | 205.6 to 206.6 | 25.7 | –
10 | C/C(=N\OCCCOc1ccc(C(=O)O)c(NC(=O)c2ccc(C(F)(F)F)cc2)c1)c1ccccc1 [Compound 23, 4-[3-({[(1E)-1-Phenylethylidene]amino}oxy)propoxy]-2-{[4-(trifluoromethyl)benzoyl]amino}benzoic acid] | 26 | 174.3 to 175.7 | – | –
11 | O=C(Nc1cc(OCCCO/N=C/c2cc(C(F)(F)F)cc(C(F)(F)F)c2)ccc1C(=O)O)c1ccc(OC(F)(F)F)cc1 [Compound 28, 4-{3-[({(1E)-[3,5-Bis (trifluoromethyl)phenyl]methylidene}amino)oxy]propoxy}-2-{[4-(trifluoromethoxy)benzoyl]amino}benzoic Acid] | 51 | 184.5 to 185.5 | – | –
12 | CC(C)(C)c1ccc(/C=N/OCCCOc2ccc(C(=O)O)c(NC(=O)c3ccc4ccccc4c3)c2)cc1 [Compound 34, 4-[3-({[(1E)-(4-tert-Butylphenyl)methylidene]amino}oxy)propoxy]-2-(2-naphthoylamino)benzoic Acid] | 14 | 156 to 158 | – | –
13 | CC(C)(C)c1ccc(/C=N/OCCCOc2ccc(C(=O)O)c(NC(=O)/C=C/c3ccc(-c4ccccc4)cc3)c2)cc1 [Compound 35, 2-{[(2E)-3-(1,1′-Biphenyl-4-yl)prop-2-enoyl]amino}-4-[3-({[(1E)-(4-tert-butylphenyl)methylidene]amino}oxy)propoxy]-benzoic Acid] | 16 | 169 to 171 | – | –
14 | CC(C)(C)c1ccc(/C=N/OCCCOc2ccc(C(=O)O)c(NC(=O)c3ccc(-c4ccccc4)cc3)c2)cc1 [Compound 36, 2-[(1,1′-Biphenyl-4-ylcarbonyl)amino]-4-[3-({[(1E)-(4-tert-butylphenyl)methylidene]amino}oxy)propoxy]benzoic Acid] | 23 | 155 to 158.5 | – | –

The next lines start with results.

Row | inhibition at 25 µM [1, 2] [%] | melting point [°C] | IC50 [1] [µM] | SMILES | % Inhibition @ 25 μM [1, 2] [%]
15 | 30 | 148.9 to 150 | – | CC(=NOCc1ccc(CC(=O)O)cc1)c1ccc(C(C)(C)C)cc1 [Compound 2, {4-[1-(4-tert-Butyl-phenyl)-ethylideneaminooxymethyl]-phenyl}-acetic Acid] | –
16 | 19 | 93.3 to 96.2 | – | CC(C)(C)c1ccc(C=NOCc2ccc(CC(=O)O)cc2)cc1 [Compound 3, [4-(4-tert-Butyl-benzylideneaminooxymethyl]-phenyl}-acetic Acid] | –
17 | 1 | 146.3 to 147.9 | – | CC(C)(C)c1ccc(/C=N/OCCOc2ccc(C(=O)O)c(OC(=O)c3ccc(C(F)(F)F)cc3)c2)cc1 [Compound 8, 4-{2-[({(E)-[4-(tert-Butyl)phenyl]methylidene}amino)oxy]ethoxy}-2-{[4-(trifluoromethyl)benzoyl]oxy}benzoic Acid] | –
18 | – | 167.1 to 168.8 | 11.2 | C/C(=N\OCCOc1ccc(C(=O)O)cc1Cl)c1ccc(C(C)(C)C)cc1 [Compound 12, 4-{2-[({(E)-1-[4-(tert-Butyl)phenyl]ethylidene}amino)oxy]-ethoxy}-3-chloro-benzoic Acid] | –
19 | 34 | 142.7 to 143.9 | – | C/C(=N\OCCOc1ccc(C(=O)O)c(Cl)c1)c1ccc(C(C)(C)C)cc1 [Compound 13, 4-{2-[({(E)-1-[4-(tert-Butyl)phenyl]ethylidene}amino)oxy]-ethoxy}-2-chloro-benzoic Acid] | –
20 | 42 | 101.2 to 102.1 | – | CC(C)(C)c1ccc(/C=N/OCCCOc2ccc(CCC(=O)O)cc2)cc1 [Compound 16, 3-(4-{3-[({(E)-[4-(tert-butyl)phenyl]methylidene}amino)oxy]propoxy}phenyl)propanoic Acid] | –
21 | 24 | 170.5 to 172.5 | – | O=C(O)c1ccc(OCCCO/N=C/c2ccc(-c3ccccc3)cc2)cc1NC(=O)c1ccccc1C(F)(F)F [Compound 26, 4-[3-({[(1E)-1,1′-biphenyl-4-ylmethylidene]amino}oxy)propoxy]-2-{[2-(trifluoromethyl)benzoyl]amino}benzoic Acid] | –
22 | 70 | 194.5 to 195.5 | – | O=C(Nc1cc(OCCCO/N=C/c2ccc(-c3ccccc3)cc2)ccc1C(=O)O)c1ccc(OC(F)(F)F)cc1 [Compound 29, 4-[3-({[(1E)-1,1′-Biphenyl-4-ylmethylidene]amino}oxy)propoxy]-2-{[4-(trifluoromethoxy)benzoyl]amino}benzoic Acid] | –
